Molecules are shown by their SMILES. pIC50: −log10 of the molar value. Like-named read-outs stand apart in the source and are kept apart here.

Experiment [1] has as its system MDA-MB231 cells. Description: Boyden chamber invasion assay, MDA-MB231. The experiment is classed as cell-based, human. Particulars: 0.1, 1.0 or 1.5 μM; FIG. 1A. The procedure: Invasion is an important step towards breast cancer cell metastasis. Therefore, the effects of several cannabinoids were tested on their ability to modulate the migratory and invasiveness activity of the most aggressive human breast cancer cell line, MDA-MB231, in a reconstituted basement membrane in a Boyden chamber.

The subject of the next experiment is Id-1. In words: Id-1 protein expression by quantitative Western analysis, MDA-MB231. The experiment is classed as cell-based, human. Particulars: MDA-MB231 cells, 1.5 μM, two days, FIG. 1E. The source says: Proteins were separated by SDS/PAGE, blotted on Immobilon membrane, and probed with anti-Id-1 and the appropriate secondary antibody. Band intensity values were obtained directly from the blot using AlphaeaseFC software (San Leandro, Calif.) or from film using Image-J (NIH, MD). As a normalization control for loading, blots were stripped and re-probed with mouse alpha-tubulin (Abeam, Cambridge, Mass.).
The ability of CBD to regulate the expression of key genes that control breast cancer cell aggressiveness and invasiveness was determined A potential candidate protein that could mediate the effects of CBD on both phenotypes was the helix-loop-helix protein Id-1. […] The inhibitory effect of CBD on Id-1 expression occurred at concentrations as low as 100 nM. […] The CBD concentrations effective at inhibiting Id-1 expression correlated with those used to inhibit the proliferative and invasive phenotype of MDA-MB231 cells. Furthermore, the time period needed to observe the down-regulation of Id-1 protein in the presence of CBD correlated with the inhibitory effects of CBD on the aggressiveness and invasiveness of MDA-MB231 cells (FIG. 1, panel D).
In order to determine the SAR between cannabinoids and the inhibition of Id-1, MDA-MB231 cells were treated for two days with multiple cannabinoid compounds and Id-1 protein levels were assessed.

A further experiment deals with SF126 cells. Description: MTT cell proliferation assay, SF126 GBM cells. The experiment is classed as cell-based, human. As to conditions: Homo sapiens, read-out: IC50 antiproliferative, SF126. As to the method:
(§1) The human GBM cell lines used were SF126, U87 and U251. Cell lines were maintained at 37° C. and 5% CO2.
(§2) Treatment groups were divided into 1) no treatment (control), 2) Δ^9-THC alone, 3) CBD alone, 4) Δ^9-THC and CBD combined. Positive and negative aspects of constituent interaction were determined in this 2×2 design using 2-way analysis of variance as described by (Slinker, 1998). […] Significant differences were also determined using ANOVA where suitable. […] P values <0.05 defined statistical significance.
A general note: Formazan colour is commonly taken as a measure of viable cells.

The next experiment relates to U87 cells. Description: MTT cell proliferation assay, U87 GBM cells. The experiment is classed as cell-based, human. As to conditions: Homo sapiens, U-87 MG, 168 h, seven day treatment, 95% confidence limits, read-out: IC50 antiproliferative, U87. The procedure: as §1, §2
In experiment [2] the test system is U251 cells. In words: MTT cell proliferation assay, U251 GBM cells. Type of experiment: cell-based, human. Particulars: Homo sapiens, U-251, 168 h, seven day treatment, 95% confidence limits, read-out: IC50 antiproliferative, U251. As to the method: as §1, §2
For experiment [3], the system named is U251 cells. Description: Boyden chamber invasion assay, U251. The experiment is classed as cell-based, human.
Experiment [4] concerns U251 cells. Description: Apoptosis (annexin staining, FACS), U251. The experiment is classed as cell-based, human. As to conditions: U251, three days. As to the method: Cells were grown in 6 well culture dishes and were treated with the appropriate compounds every 24 hours for three days. The cells were trypsinized, washed with PBS, and processed for labeling with fluorescein-tagged UTP nucleotide and PI by use of an Apo-Direct apoptosis kit obtained from Phoenix Flow Systems (San Diego, Calif.) and was used according to the manufacturer's protocol. The labeled cells were analyzed by flow cytometry. Cell Flow Cytometry in combination with PI and annexin staining was used to quantify the percentage of cells undergoing apoptosis in control and treatment groups. % control was calculated as annexin positive staining in treated cells/control cells×100. PI staining was used to distinguish necrotic cells from those undergoing apoptosis.

For the next experiment, the system named is ERK, JNK, and p38 MAPK. Description: MAPK activity (pERK, ERK, JNK, p38) by Western analysis, U251. Type of experiment: cell-based, human. The procedure: Cells cultured and treated in 6-well dishes were washed twice with cold PBS. Lysis buffer was added and cells lysed by freezing for 10 min at −70° C. and then thawing. Cell lysate was collected and the concentration was determined using Bradford reagent. Equal amounts of protein were heated to 90° C. in Laemmli sample buffer with β-mercaptoethanol, and loaded onto a precast SDS-PAGE gel (Bio-Rad Laboratories, Hercules, Calif.). Protein was transferred to an Immobilon membrane (Millipore, Billerica, Mass.) overnight at 2-4° C. Blots were then blocked with 5% nonfat dry milk in TBS+Tween for 1 h. Primary antibody from Millipore (rabbit anti-phospho-JNK, rabbit anti-phospho-p38, rabbit anti-phospho-ERK1/2 and rabbit anti-ERK1/2, 1 mcg/mL) in blocking buffer was then added for 1 h. The blots were then rinsed three times 10 min with TBS+Tween. Secondary antibody (Donkey Anti-Rabbit IgG, Jackson Immunoresearch, West Grove, Pa.) was then added. Blots were incubated for 45 min and then washed 4 times for 15 min each. The blots were developed with SuperSignal Femto (Pierce, Rockford, Ill.), and imaged on either a Fluorchem 8900 (Alpha Innotech, San Leandro, Calif.) or ECL Hyperfilm (Amersham-Pharmacia, Piscataway, N.J.). Band intensity values were obtained (after background subtraction) directly from the […] using AlphaeaseFC software (San Leandro, Calif.) or from film using Image-J (NIH, MD). As a normalization control for loading, blots were stripped and re-probed with mouse alpha-tubulin (Abcam, Cambridge, Mass.) and goat anti-mouse IgG (Jackson Immunoresearch) for the primary and secondary antibodies, respectively.
The regulation of ERK, JNK, and p38 MAPK activity plays a role in controlling cell growth and apoptosis. U251 cells were used to determine whether modulation of ERK, JNK, and p38 MAPK activity occurred.

Experiment [5] concerns U251 cells. Description: Cell cycle analysis (PI staining, FACS), U251. The experiment is classed as cell-based, human. Particulars: Δ9-THC 1.7 μM and/or CBD 0.4 μM, FIG. 8. The procedure: U251 cells were grown in Petri dishes (100 mm×15 mm) and received drug treatments for 2 days. On the third day, the cells were harvested and centrifuged at 1200 rpm for 5 minutes. The pellet was washed 1× with PBS+1% BSA, and centrifuged again. The pellet was resuspended in 0.5 ml of 2% paraformaldehyde (diluted with PBS) and left to fix overnight at room temperature. The next day the cells were pelleted and resuspended in 0.5 ml 0.3% Triton in PBS and incubated for 5 minutes at room temperature. The cells were then washed 2 times with PBS+1% BSA. The cells were finally suspended in PBS (0.1% BSA) with 10 ug/ml Propidium Iodide and 100 μg/ml RNAse. The cells were incubated for 30 minutes at room temperature before being stored at 4 C. Cell cycle was measured using a FACS Calibur using Cell Quest Pro and Modfit software.

For a further experiment, the system named is caspase 3, 7, 9 and PARP. In words: Caspase and PARP Western analysis, U251. The experiment is classed as cell-based, human. Particulars: U251, three days; Δ9-THC 1.7 μM and/or CBD 0.4 μM; FIG. 9.
The subject of experiment [6] is MDA-MB231 cells. In words: MTT cell proliferation assay, MDA-MB231. Particulars: Homo sapiens, MDA-MB-231, 72 h, read-out: IC50 antiproliferative, MDA-MB231.
For the next experiment, the system named is MDA-MB436 cells. In words: MTT cell proliferation assay, MDA-MB436. As to conditions: Homo sapiens, MDA-MB-436, 72 h, read-out: IC50 antiproliferative, MDA-MB436.

One may read the pIC50 as the IC50 on a negative log10 scale, so that one unit is a factor of ten. Take `CCCCCc1cc(O)c2c(c1)OC(C)(C)C1CCC(C)=CC21` (stereo not drawn) [Δ^9-THC, tetrahydrocannabinol]: the “invasion of MDA-MB231 cells” value with MDA-MB231 cells [1] is “significantly reduced”. Besides, the “inhibition of Id-1 protein (structure activity relationship)” value in the experiment on Id-1 was “No inhibition”; in the experiment on Id-1 (listed as THC), “no activity”. Moreover, the pIC50 in the experiment with SF126 cells (SF-126, 72 h, three day treatment, 95% confidence limits (Table 4)) is 5.60; in the experiment with SF126 cells (SF-126, 168 h, seven day treatment, 95% confidence limits) it was 6.05; in the experiment with U87 cells, 5.80; in the experiment with U251 cells [2], 5.96; with U251 cells [3] (Homo sapiens, U-251, limits 49-150, read-out: predicted IC50 to inhibit U251 cell invasiveness), 7.07; with MDA-MB231 cells [6], 5.92. Moreover, in the experiment on MDA-MB436 cells, the pIC50 is 5.60. Besides, in the experiment on U251 cells [3] (Boyden chamber, FIG. 10), the “invasiveness of U251 cells” value is on record as “effectively inhibited”. Further, the “apoptosis in the presence of the CB2 antagonist SR144528” value with U251 cells [4] (0.5 μM SR144528, combination 1.7/0.4 μM, 2.5 μM Δ9-THC or 2.0 μM CBD, FIG. 6) is given as “partially blocked”. The “apoptosis in the presence of α-tocopherol” value in the experiment on U251 cells [4] (20 μM α-tocopherol, combination 1.7/0.4 μM, 2.5 μM Δ9-THC or 2.0 μM CBD, FIG. 6) was “completely blocked”. Also, in the experiment on U251 cells [4] (Δ9-THC 1.7 μM and/or CBD 0.4 μM, FIG. 5), the “apoptosis (annexin staining)” value is “did not produce significant changes”. In the experiment with ERK, JNK, and p38 MAPK (U251, three days, 2.5 μM Δ9-THC, 2.0 μM CBD, or 1.7 μM/0.4 μM combination, FIG. 6D), the “p-ERK, higher concentrations alone compared with the combination” value is given as “no effect”. The p-ERK entry with ERK, JNK, and p38 MAPK (U251, Δ9-THC 1.7 μM and/or CBD 0.4 μM, two days, FIG. 4) is listed as “no changes”. For the same molecule, in the experiment with U251 cells [5], the cell cycle distribution entry was “increases in the population of cells in G1 and G2/M phase and decreases in cells in S phase”. The “caspase 3, 7, 9 and PARP activation” value with caspase 3, 7, 9 and PARP is “Small increases in the activity of caspase 7, caspase 9 and PARP but not caspase 3”.

Values taken from patent US11344527B2, “Methods and compositions for treating cancer” (Sutter West Bay Hospitals, priority 2007, dated 2022).
